Reference: patent US20130029970A1 (priority 2009, published 2013)
Where two headings read alike, the source gives them in different places.

Tests used:
human CB2 (hCB2) = molecular target: T1, human CB2 (hCB2) (Homo sapiens, UniProt P34972); experiment: 35S GTPγS binding assay, hCB2 agonist; format: biochemical
T1 construct: (cDNA clone) CNR0200000
In short: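 Agonist-stimulated [35S]GTPγS (0.1 nM) binding measured by scintillation proximity after 90 min at room temperature. Reaction buffer: 50 mM HEPES pH 7.4, 100 mM NaCl, 5 mM MgCl2, 0.001% saponin plus 20 uM GDP. Membranes (5 μg) came from transfected cells expressing hCB2 cDNA (pcDNA3.1+ vector).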

[1] = molecular target: T2, recombinant human cannabinoid receptor CB2 (Homo sapiens, UniProt P34972); experiment: Cannabinoid receptor radioligand binding assay, [3H]-CP 55,940 displacement, hCB2
T2 construct: (cDNA clone) CNR0200000
T2 sequence (P34972 whole entry): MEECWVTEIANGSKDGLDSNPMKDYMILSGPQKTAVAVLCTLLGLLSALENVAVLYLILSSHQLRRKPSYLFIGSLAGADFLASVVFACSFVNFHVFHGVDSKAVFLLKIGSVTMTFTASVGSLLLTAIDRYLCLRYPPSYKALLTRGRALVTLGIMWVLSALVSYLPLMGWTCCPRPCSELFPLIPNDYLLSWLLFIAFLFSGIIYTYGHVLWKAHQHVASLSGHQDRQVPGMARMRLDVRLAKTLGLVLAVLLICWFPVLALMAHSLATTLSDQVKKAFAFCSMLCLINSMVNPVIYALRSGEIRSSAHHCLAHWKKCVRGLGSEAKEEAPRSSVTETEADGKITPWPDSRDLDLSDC
In short: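 Receptor source: membrane pellet (40,000×g) from transfected cells, stored in HEPES pH 7.4/MgCl2/EDTA/sucrose buffer.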

[2] = molecular target: T3, recombinant human cannabinoid receptor CB1 (Homo sapiens, UniProt P21554); experiment: Cannabinoid receptor radioligand binding assay, [3H]-CP 55,940 displacement, hCB1
T3 construct: (cDNA clone) CNR01L000
T3 sequence (P21554 whole entry): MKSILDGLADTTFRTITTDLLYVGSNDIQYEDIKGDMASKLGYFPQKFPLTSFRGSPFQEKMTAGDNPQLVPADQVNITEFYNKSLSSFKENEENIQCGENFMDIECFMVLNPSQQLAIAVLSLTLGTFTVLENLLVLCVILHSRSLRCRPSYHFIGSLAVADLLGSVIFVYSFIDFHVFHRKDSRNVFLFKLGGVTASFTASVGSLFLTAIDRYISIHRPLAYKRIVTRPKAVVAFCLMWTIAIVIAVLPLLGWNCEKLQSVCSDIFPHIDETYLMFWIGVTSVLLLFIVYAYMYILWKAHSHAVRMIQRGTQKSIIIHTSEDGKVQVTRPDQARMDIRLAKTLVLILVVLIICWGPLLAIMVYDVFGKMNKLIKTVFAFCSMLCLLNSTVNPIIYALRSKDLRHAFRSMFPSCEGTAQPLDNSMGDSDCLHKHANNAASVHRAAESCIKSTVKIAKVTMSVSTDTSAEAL
In short: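 Displacement of 0.5 nM [3H]-CP 55,940 (1 μM unlabeled CP 55,940 for nonspecific) measured by filtration and scintillation counting. Binding ran 90 min at room temperature in pH 7.5 Tris buffer with 0.1% fatty-acid-free BSA, using recombinant hCB1 HEK-293 membranes at 2-10 μg protein.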

[3] = GTPγS agonist, HEK-293 membranes, read-out: hCB2 EC50 (GTPyS ag)

T1 sequence (P34972 whole entry): as the sequence (P34972 whole entry) above

Structure (SMILES): CCOC(=O)CCn1c(C)cc2cc(C(=O)c3ccc(OC)cc3)sc21 [Compound 72, Ethyl 3-(2-(4-methoxybenzoyl)-5-methyl-6H-thieno[2,3-b]pyrrol-6-yl)propanoate]
- EC50 (human CB2 (hCB2)): 0.1 to 1 µM
- IC50 [1]: 1 to 10 µM
- IC50 [2]: > 10 µM

Structure (SMILES): COc1ccc(C(=O)c2cc3cc(C)n(CCCNC(=O)C(F)(F)F)c3s2)cc1 [Compound 76, 2,2,2-Trifluoro-N-(3-(2-(4-methoxybenzoyl)-5-methyl-6H-thieno[2,3-b]pyrrol-6-yl)propyl)acetamide]
- EC50 (human CB2 (hCB2)): 0.1 to 1 µM
- IC50 [1]: 0.1 to 1 µM
- IC50 [2]: 1 to 10 µM

Structure (SMILES): COc1ccc(C(=O)c2cc3cc(C)n(CCC(C)(C)O)c3s2)cc1 [Compound 77, (6-(3-Hydroxy-3-methylbutyl)-5-methyl-6H-thieno[2,3-b]pyrrol-2-yl)(4-methoxyphenyl)methanone]
- EC50 (human CB2 (hCB2)): 0.1 to 1 µM
- IC50 [1]: 1 to 10 µM
- IC50 [2]: 1 to 10 µM

Structure (SMILES): Cc1ccc(C(=O)c2cc3cc(C)n(CCN4CCOCC4)c3s2)c(F)c1 [Compound 80, (2-Fluoro-4-methylphenyl)(5-methyl-6-(2-morpholinoethyl)-6H-thieno[2,3-b]pyrrol-2-yl)methanone]
- EC50 (human CB2 (hCB2)): < 0.1 µM
- IC50 [1]: 0.1 to 1 µM
- IC50 [2]: 1 to 10 µM

Structure (SMILES): COc1ccc(C(=O)c2cc3cc(C)n(CCN4CCCC4)c3s2)cc1 [Compound 83, (4-Methoxyphenyl)(5-methyl-6-(2-(pyrrolidin-1-yl)ethyl)-6H-thieno[2,3-b]pyrrol-2-yl)methanone]
- EC50 (human CB2 (hCB2)): 0.1 to 1 µM
- IC50 [1]: 0.1 to 1 µM
- IC50 [2]: 1 to 10 µM

Structure (SMILES): Cc1ccc(C(=O)c2cc3cc(C)n(CCN4CCOCC4)c3s2)c(Cl)c1 [Compound 86, (2-Chloro-4-methylphenyl)(5-methyl-6-(2-morpholinoethyl)-6H-thieno[2,3-b]pyrrol-2-yl)methanone]
- EC50 (human CB2 (hCB2)): < 0.1 µM
- IC50 [1]: < 0.1 µM
- IC50 [2]: 0.1 to 1 µM

Structure (SMILES): COc1ccc(C(=O)c2cc3cc(C)n(CCN4CCOCC4)c3s2)c(C)c1 [Compound 88, (4-Methoxy-2-methylphenyl)(5-methyl-6-(2-morpholinoethyl)-6H-thieno[2,3-b]pyrrol-2-yl)methanone]
- EC50 (human CB2 (hCB2)): < 0.1 µM
- IC50 [1]: < 0.1 µM
- IC50 [2]: 0.1 to 1 µM

Structure (SMILES): CCOc1ccc(C(=O)c2cc3cc(C)n(CCN4CCOCC4)c3s2)c(F)c1 [Compound 89, (4-Ethoxy-2-fluorophenyl)(5-methyl-6-(2-morpholinoethyl)-6H-thieno[2,3-b]pyrrol-2-yl)methanone]
- EC50 (human CB2 (hCB2)): < 0.1 µM
- IC50 [1]: 0.1 to 1 µM
- IC50 [2]: 1 to 10 µM

Structure (SMILES): COc1ccc(C(=O)c2cc3cc(C)n(CCN4CCCCC4)c3s2)c(Cl)c1 [Compound 90, (2-Chloro-4-methoxyphenyl)(5-methyl-6-(2-(piperidin-1-yl)ethyl)-6H-thieno[2,3-b]pyrrol-2-yl)methanone]
- EC50 (human CB2 (hCB2)): < 0.1 µM
- IC50 [1]: < 0.1 µM
- IC50 [2]: 0.1 to 1 µM

Structure (SMILES): COc1ccc(C(=O)c2cc3cc(C)n(CCN4CCCC4)c3s2)c(F)c1 [Compound 92, (2-Fluoro-4-methoxyphenyl)(5-methyl-6-(2-(pyrrolidin-1-yl)ethyl)-6H-thieno[2,3-b]pyrrol-2-yl)methanone]
- EC50 (human CB2 (hCB2)): < 0.1 µM
- IC50 [1]: 0.1 to 1 µM
- IC50 [2]: 1 to 10 µM

Structure (SMILES): COc1ccc(C(=O)c2cc3cc(C)n(CCN4CCCC4)c3s2)c(Cl)c1 [Compound 93, (2-Chloro-4-methoxyphenyl)(5-methyl-6-(2-(pyrrolidin-1-yl)ethyl)-6H-thieno[2,3-b]pyrrol-2-yl)methanone]
- EC50 (human CB2 (hCB2)): < 0.1 µM
- IC50 [1]: < 0.1 µM
- IC50 [2]: 0.1 to 1 µM

Structure (SMILES): COc1ccc(C(=O)c2cc3cc(C)n(CCCNS(C)(=O)=O)c3s2)c(C)c1 [Compound 96, N-(3-(2-(4-Methoxy-2-methylbenzoyl)-5-methyl-6H-thieno[2,3-b]pyrrol-6-yl)propyl)methanesulfonamide]
- EC50 (human CB2 (hCB2)): < 0.1 µM
- IC50 [1]: < 0.1 µM
- IC50 [2]: 1 to 10 µM

Structure (SMILES): COc1ccc(C(=O)c2cc3cc(C)n(CCN4CCCCC4)c3s2)c(F)c1 [Compound 98, (2-Fluoro-4-methoxyphenyl)(5-methyl-6-(2-(piperidin-1-yl)ethyl)-6H-thieno[2,3-b]pyrrol-2-yl)methanone]
- EC50 (human CB2 (hCB2)): < 0.1 µM
- IC50 [1]: < 0.1 µM
- IC50 [2]: 1 to 10 µM

Structure (SMILES): COc1ccc(C(=O)c2cc3cc(C)n(CCN4CCCCC4)c3s2)c(O)c1 [Compound 99, (2-Hydroxy-4-methoxyphenyl)(5-methyl-6-(2-(piperidin-1-yl)ethyl)-6H-thieno[2,3-b]pyrrol-2-yl)methanone]
- EC50 (human CB2 (hCB2)): < 0.1 µM
- IC50 [1]: 0.1 to 1 µM
- IC50 [2]: 1 to 10 µM

Structure (SMILES): COc1ccc(C(O)c2cc3cc(C)n(CCN4CCOCC4)c3s2)cc1 (stereo not drawn) [Compound 100, (4-Methoxyphenyl)(5-methyl-6-(2-morpholinoethyl)-6H-thieno[2,3-b]pyrrol-2-yl)methanol]
- EC50 (human CB2 (hCB2); [3]): < 0.1 µM
- IC50 [1]: 0.1 to 1 µM
- IC50 [2]: 1 to 10 µM

Structure (SMILES): COc1ccc(C(C)(O)c2cc3cc(C)n(CCN4CCOCC4)c3s2)cc1 (stereo not drawn) [Compound 101, 1-(4-methoxyphenyl)-1-(5-methyl-6-(2-morpholinoethyl)-6H-thieno[2,3-b]pyrrol-2-yl)ethanol]
- EC50 (human CB2 (hCB2); [3]): < 0.1 µM
- IC50 [1]: 0.1 to 1 µM
- IC50 [2]: 1 to 10 µM

Structure (SMILES): COc1ccc(C(=O)c2cc3cc(C)n(CCCCNS(C)(=O)=O)c3s2)cc1 [Compound 102, N-(4-(2-(4-Methoxybenzoyl)-5-methyl-6H-thieno[2,3-b]pyrrol-6-yl)butyl)methanesulfonamide]
- EC50 (human CB2 (hCB2); [3]): < 0.1 µM
- IC50 [1]: < 0.1 µM
- IC50 [2]: 1 to 10 µM

Structure (SMILES): COc1ccc(Cn2c(C)cc3cc(C(=O)c4ccc(OC)cc4)sc32)cc1 [Compound 103, (6-(4-Methoxybenzyl)-5-methyl-6H-thieno[2,3-b]pyrrol-2-yl)(4-methoxyphenyl)methanone]
- EC50 (human CB2 (hCB2)): 0.1 to 1 µM
- IC50 [1]: 0.1 to 1 µM
- IC50 [2]: 1 to 10 µM

Structure (SMILES): COc1ccc(C(=S)c2cc3cc(C)n(CCN4CCOCC4)c3s2)cc1 [Compound 104, (4-methoxyphenyl)(5-methyl-6-(2-morpholinoethyl)-6H-thieno[2,3-b]pyrrol-2-yl)methanethione]
- EC50 (human CB2 (hCB2)): 0.1 to 1 µM
- IC50 [1]: 1 to 10 µM
- IC50 [2]: 1 to 10 µM

Structure (SMILES): COc1ccc(C(=O)c2cc3cc(C)n(CCCNS(N)(=O)=O)c3s2)cc1 [Compound 105]
- EC50 (human CB2 (hCB2)): 0.1 to 1 µM
- IC50 [1]: 1 to 10 µM
- IC50 [2]: > 10 µM

Structure (SMILES): Cc1cc2cc(C(=O)c3ccc4c(c3)OCO4)sc2n1CCN1CCOCC1 [Compound 106, Benzo[d][1,3]dioxol-5-yl(5-methyl-6-(2-morpholinoethyl)-6H-thieno[2,3-b]pyrrol-2-yl)methanone]
- EC50 (human CB2 (hCB2)): < 0.1 µM
- IC50 [1]: 0.1 to 1 µM
- IC50 [2]: 1 to 10 µM

Structure (SMILES): COc1ccc(C(=O)c2cc3cc(C)n(CCCN4CCOCC4)c3s2)cc1 [Compound 107, (4-Methoxyphenyl)(5-methyl-6-(3-morpholinopropyl)-6H-thieno[2,3-b]pyrrol-2-yl)methanone]
- EC50 (human CB2 (hCB2); [3]): < 0.1 µM
- IC50 [1]: < 0.1 µM
- IC50 [2]: 0.1 to 1 µM

Structure (SMILES): COc1ccc(C(=O)c2cc3cc(C)n(CCCNC(C)(C)C)c3s2)cc1 [Compound 108, (6-(3-(tert-Butylamino)propyl)-5-methyl-6H-thieno[2,3-b]pyrrol-2-yl)(4-methoxyphenyl)methanone]
- EC50 (human CB2 (hCB2)): 0.1 to 1 µM
- IC50 [1]: > 10 µM
- IC50 [2]: > 10 µM

Structure (SMILES): COc1ccc(C(=O)c2cc3cc(C)n(CCCNS(C)(=O)=O)c3s2)cn1 [Compound 109, N-(3-(2-(6-Methoxynicotinoyl)-5-methyl-6H-thieno[2,3-b]pyrrol-6-yl)propyl)methanesulfonamide]
- EC50 (human CB2 (hCB2); [3]): < 0.1 µM
- IC50 [1]: 0.1 to 1 µM
- IC50 [2]: > 10 µM

Structure (SMILES): COc1ccc(C(=O)c2cc3cc(C)n(CCN4CCSCC4)c3s2)cc1 [Compound 110, (4-Methoxyphenyl)(5-methyl-6-(2-thiomorpholinoethyl)-6H-thieno[2,3-b]pyrrol-2-yl)methanone]
- EC50 (human CB2 (hCB2)): < 0.1 µM
- IC50 [1]: < 0.1 µM
- IC50 [2]: 1 to 10 µM

Structure (SMILES): Cc1cc2cc(C(=O)c3ccc(OC(C)C)cc3)sc2n1CCN1CCOCC1 [Compound 111, (4-Isopropoxyphenyl)(5-methyl-6-(2-morpholinoethyl)-6H-thieno[2,3-b]pyrrol-2-yl)methanone]
- EC50 (human CB2 (hCB2)): 0.1 to 1 µM
- IC50 [1]: 0.1 to 1 µM
- IC50 [2]: 1 to 10 µM

Structure (SMILES): COc1ccc(C(=O)c2cc3cc(C)n(Cc4ccncc4)c3s2)cc1 [Compound 112, (4-Methoxyphenyl)(5-methyl-6-(pyridin-4-ylmethyl)-6H-thieno[2,3-b]pyrrol-2-yl)methanone]
- EC50 (human CB2 (hCB2)): 0.1 to 1 µM
- IC50 [1]: 0.1 to 1 µM
- IC50 [2]: 1 to 10 µM

Structure (SMILES): COc1ccc(C(=O)c2cc3cc(C)n(S(=O)(=O)N(C)C)c3s2)cn1 [Compound 113, 2-(6-Methoxynicotinoyl)-N,N,5-trimethyl-6H-thieno[2,3-b]pyrrole-6-sulfonamide]
- EC50 (human CB2 (hCB2)): < 0.1 µM
- IC50 [1]: < 0.1 µM
- IC50 [2]: 1 to 10 µM

Structure (SMILES): COc1ccc(C(=O)c2cc3cc(C)n(Cc4ccccc4)c3s2)c(Cl)c1 [Compound 114, (6-Benzyl-5-methyl-6H-thieno[2,3-b]pyrrol-2-yl)(2-chloro-4-methoxyphenyl)methanone]
- EC50 (human CB2 (hCB2); [3]): < 0.1 µM
- IC50 [1]: < 0.1 µM
- IC50 [2]: 1 to 10 µM

Structure (SMILES): CSc1ccc(C(=O)c2cc3cc(C)n(CCN4CCOCC4)c3s2)cc1 [Compound 115, (5-Methyl-6-(2-morpholinoethyl)-6H-thieno[2,3-b]pyrrol-2-yl)(4-(methylthio)phenyl)methanone]
- EC50 (human CB2 (hCB2)): 0.1 to 1 µM
- IC50 [1]: 0.1 to 1 µM
- IC50 [2]: 1 to 10 µM
